Assay: Toxicity study in Aotus monkey
Type: in vivo
Details: for CBC parameters / body weight change / adverse effects (anorexia, vomiting, diarrhea, behavior): single oral 3 mg/kg; for adverse effects (anorexia, vomiting, diarrhea, behavior): 28 day observation period; for behavior, weight or blood chemistry changes: single oral dose 3 mg/kg
Protocol: (e). Toxicity Study in Aotus monkey: Protocol: Two malaria double cured Aotus weighing 1027-695 grams respectively received single dose of 3 mg/kg orally of the two compounds 2b and 3e. The monkeys were weighed and pre-bleed for CBC and Chemistry (ALT, BUN, Creatinine) determination, and again three, seven and 15 days post treatment. Signs of toxicity such as anorexia, vomiting, diarrhea or behavior changes were recorded. […] (f). Antimalarial Activity against P. falciparum in Aotus monkey: Protocol: Six (6) malaria naive Aotus lemurinus lemurinus (weigh 787-978 grms) were divided into two groups of two Aotus each plus two controls (MN13177 male and MN 13153 male) and infected with 5×10^6 P. falciparum FVO malaria parasites with 1 ml of an appropriate dilution in RPMI media intravenously on the saphenous vein. When their parasitemia reached 5×10^4 parasites/ul, treatment was started. Giemsa-stained thick blood smears were prepared daily with a prick in the ear marginal vein and parasites enumerated by the Earle and Perez method. Group 1 Aotus received 3e at 1 mg/kg once a day×three days. Group 2 Aotus received 2b at 1 mg/kg once a day×three days. The monkeys were weight and pre-bled for CBC and Chemistry (ALT, BUN, Creatinine) determination, and on day 4 post-treatmetne (PT). Bleedings for Pk determinations were carried out on day 1 PT at time 0, 1 hr, 7:30 hr and 24 hr PT. Group 1 (receiving 3e) animals cleared the parasitemias on day 3 post treatment (PT) and remained negative up to 100 days PT. In group 2 (receiving 2b), one animal cleared on day 3 PT and the other one on day 4 PT remaining negative up to 100 days PT. […] (g). Antimalarial Activity against P. vivax in Aotus monkey: Protocol: Fourteen (14) P. falciparum cured Aotus l. lemurinus monkeys (male and female) (weight 700-925 grms) were infected intravenously with 5×10^6 parasites of the P. vivax AMRU-1 strain diluted in RPMI media obtained from a donor and divided into two larger groups of 6 monkeys each (Group I and Group II) (2 monkeys per dose level), that received 3e and 6 monkeys (2 monkeys per dose level) that received 2b daily at 0.5, 1.0 and 3 mg/kg/day for a total of 3 days. Two monkeys were left has untreated controls. Treatment started when parasitemia reached 5,000 parasites×cc/mm on day 6 PI. Daily food intake was documented. Daily Giemsa-stained thick blood smears were prepared from a prick in the marginal ear vein and parasites enumerated by the Earle and Perez method. The animals were weighed at weekly intervals. Blood samples for Pk determination were collected at the following time points as follows: Day 0: CBC and chemistry panel (ALT. Creatinine and BUN); Day 4: CBC and chemistry Panel. CBC and chemistry panels were done the day prior to first dose and 24 hours after last dose and at weekly intervals thereafter. […] The other monkeys received 1 and 3 mg/kg of 3e remained negative until day 100 PT. In Group II, all monkeys except for one that received 3 mg/kg of 2b failed treatment and were retreated on day 3 PT with 3e at either 0.25, 0.5 or 1 mg/kg for three days. In the monkeys that received re-treatment at 0.25 mg/kg, one cleared on day 4 PT but needed to be treated with Mefloquine on day 8 PT due to a low platelet count. The other animals that had not been cleared by day 6 PT were treated with Mefloquine. […] P. vivax is known to be very drug resistant to antifolates. (h). Presumptive Causal Prophylactic Test against P. cynomolgi in Rhesus monkey: Protocol: […]

Compound	CBC parameters	body weight change	adverse effects (anorexia, vomiting, diarrhea, behavior)	behavior, weight or blood chemistry changes
CCOC(=O)Nc1nc(NC(=O)OCC)c2c(ccc3c2ccn3Cc2ccccc2C(F)(F)F)n1 [Compound 2b]	remained within normal ranges	No significant changes in body weight	No adverse effects	no behavior, weight or blood chemistry changes
CC(=O)N(C(C)=O)c1nc(N(C(C)=O)C(C)=O)c2c(ccc3c2ccn3Cc2ccccc2C(F)(F)F)n1 [Compound 3e, 1,3-Bis(diacetylamino)-7-(2-trifluoromethyl)benzyl-7H-pyrrolo[3,2-f]quinazoline]	remained within normal ranges	No significant changes in body weight	No adverse effects	no behavior, weight or blood chemistry changes
